One data set has as its system Influenza A virus. The experiment in a line: Antiviral activity against Influenza A virus A/WSN/33(H1N1) infected in dog MDCK cells assessed as reduction in viral titer in supernatants incubated for 24 hrs by plaque assay. It is filed as functional, organism-based.
A short description of data set [1]: Cytotoxicity against dog MDCK cells assessed as reduction in cell viability incubated for 48 hrs by CellTiter96 Aqueous one solution assay. It is filed as toxicity, cell-based, Canis lupus familiaris.

Bounds are passed on as bounds.

IC50 and CC50 data for 45 compounds are collected here from ChEMBL document CHEMBL5131472, “Synthesis and antiviral activity of formycin derivatives with anti-influenza virus activity” (Bioorg Med Chem, 2022).

As usually defined, the IC50 is the concentration at which inhibition is half-maximal. For orientation: CC50 means the concentration giving 50% cytotoxicity. On to `CCSc1ncnc2c([C@@H]3O[C@H](CO)[C@@H](O)[C@H]3O)n[nH]c12`, for which the IC50 in the data set on Influenza A virus was determined as 0.201 µM. Also, in data set [1], the CC50 at 48 h is over 1000 µM.

Consider `C[Se]c1ncnc2c([C@@H]3O[C@H](CO)[C@@H](O)[C@H]3O)n[nH]c12`, for which the IC50 in the data set on Influenza A virus is 0.024 µM. Also, the CC50 at 48 h in data set [1] is under 0.1 µM.

Consider `CC(C)Sc1ncnc2c([C@@H]3O[C@H](CO)[C@@H](O)[C@H]3O)n[nH]c12`, for which, in data set [1], the CC50 at 48 h was 503 µM.

As for `OC[C@H]1O[C@@H](c2n[nH]c3c(N4CCOCC4)ncnc23)[C@H](O)[C@@H]1O`, the CC50 at 48 h in data set [1] was over 1000 µM.

As to `OC[C@H]1O[C@@H](c2n[nH]c3c([SeH])ncnc23)[C@H](O)[C@@H]1O`, the IC50 with Influenza A virus came to 0.035 µM. Besides, in data set [1], the CC50 at 48 h amounted to 5.6 µM.

As for `OC[C@H]1O[C@@H](c2n[nH]c3c(-n4nccn4)ncnc23)[C@H](O)[C@@H]1O`, the IC50 in the data set with Influenza A virus was 0.103 µM. Further, in data set [1], the CC50 at 48 h is under 0.1 µM.

On to `CC(C)Nc1ncnc2c([C@@H]3O[C@H](CO)[C@@H](O)[C@H]3O)n[nH]c12`, for which the CC50 at 48 h in data set [1] was over 1000 µM.

Turning to `OC[C@H]1O[C@@H](c2n[nH]c3c(-n4cncn4)ncnc23)[C@H](O)[C@@H]1O`, the IC50 with Influenza A virus stood at 0.251 µM. The CC50 at 48 h in data set [1] turned out to be 7.9 µM.

For `OC[C@H]1O[C@@H](c2n[nH]c3c(-n4ccnn4)ncnc23)[C@H](O)[C@@H]1O`, in the data set on Influenza A virus, the IC50 was 0.343 µM. For the same compound, in data set [1], the CC50 at 48 h was 287 µM.

In the case of `OC[C@H]1O[C@@H](c2n[nH]c3c(SCC(F)(F)F)ncnc23)[C@H](O)[C@@H]1O`, in the data set with Influenza A virus, the IC50 stood at 1.09 µM. For the same compound, in data set [1], the CC50 at 48 h stood at 64 µM.

On to `OC[C@H]1O[C@@H](c2nn3c4c(ncnc24)SCC3)[C@H](O)[C@@H]1O`, for which the CC50 at 48 h in data set [1] turned out to be 249 µM.

Regarding `C=CCSc1ncnc2c([C@@H]3O[C@H](CO)[C@@H](O)[C@H]3O)n[nH]c12`, in the data set on Influenza A virus, the IC50 came out at 0.22 µM. For the same compound, in data set [1], the CC50 at 48 h was determined as 412 µM.

In the case of `CSc1ncnc2c([C@@H]3O[C@H](CO)[C@@H](O)[C@@H]3O)n[nH]c12`, in the data set on Influenza A virus, the IC50 is over 3 µM. Moreover, in data set [1], the CC50 at 48 h was over 1000 µM.

As to `Nc1ncnc2c([C@@H]3O[C@H](CO)[C@@H](O)[C@H]3O)[nH]nc12` [FORMYCIN], in the data set on Influenza A virus, the IC50 came to 0.029 µM. The 50% cytotoxic concentration (CC50) at 48 h in data set [1] came to 2.6 µM.

On to `CCNc1ncnc2c([C@@H]3O[C@H](CO)[C@@H](O)[C@H]3O)n[nH]c12`, for which the IC50 in the data set on Influenza A virus turned out to be 0.313 µM. The CC50 at 48 h in data set [1] was found to be 5.7 µM.

With `CCCCSc1ncnc2c([C@@H]3O[C@H](CO)[C@@H](O)[C@H]3O)n[nH]c12`, the CC50 at 48 h in data set [1] is 238 µM.

As for `OC[C@H]1O[C@@H](c2n[nH]c3c(-c4cnn[nH]4)ncnc23)[C@H](O)[C@@H]1O`, in data set [1], the CC50 at 48 h is over 1000 µM.

Take `CSc1ncnc2c([C@@H](CO)OC(CO)CO)n[nH]c12`: the CC50 at 48 h in data set [1] is over 1000 µM.

Consider `CSc1ncnc2c([C@@H]3O[C@H](CO)[C@@H](O)[C@]3(C)O)n[nH]c12`, for which the IC50 in the data set with Influenza A virus worked out at 0.306 µM. In addition, in data set [1], the CC50 at 48 h is over 1000 µM.

Consider `CSc1nc(O)nc2c([C@@H]3O[C@H](CO)[C@@H](O)[C@H]3O)n[nH]c12`, for which, in the data set on Influenza A virus, the IC50 is over 1 µM. In data set [1], the cytotoxic concentration (CC50) at 48 h is over 1000 µM.

Regarding `OC[C@H]1O[C@@H](c2n[nH]c3c(NCCl)ncnc23)[C@H](O)[C@@H]1O`, in the data set with Influenza A virus, the IC50 came to 0.282 µM. Also, the CC50 at 48 h in data set [1] stood at 19 µM.

Regarding `CN(C)c1ncnc2c([C@@H]3O[C@H](CO)[C@@H](O)[C@H]3O)n[nH]c12`, the concentration for half-maximal inhibition (IC50) with Influenza A virus stood at 2.84 µM. Moreover, the CC50 at 48 h in data set [1] was determined as 70 µM.

Consider `CCc1ncnc2c([C@@H]3O[C@H](CO)[C@@H](O)[C@H]3O)n[nH]c12`, for which, in data set [1], the CC50 at 48 h is over 1000 µM.

As to `CSCc1ncnc2c([C@@H]3O[C@H](CO)[C@@H](O)[C@H]3O)n[nH]c12`, in data set [1], the CC50 at 48 h is over 1000 µM.

With `CSc1ncnc2c([C@H]3C=C[C@@H](CO)O3)n[nH]c12`, the CC50 at 48 h in data set [1] is 190 µM.

Take `OC[C@H]1O[C@@H](c2n[nH]c3c(NC4CC4)ncnc23)[C@H](O)[C@@H]1O`: the CC50 at 48 h in data set [1] worked out at 431 µM.

For the compound `CSc1ncnc2c([C@@H]3O[C@H](CO)[C@@H](O)[C@H]3O)n[nH]c12`, in the data set with Influenza A virus, the concentration for half-maximal inhibition (IC50) is 0.01 µM. Besides, the CC50 at 48 h in data set [1] came out at 9.3 µM.

With `COc1ncnc2c([C@@H]3O[C@H](CO)[C@@H](O)[C@H]3O)n[nH]c12`, the IC50 in the data set on Influenza A virus came out at 0.088 µM. The CC50 at 48 h in data set [1] was 1.2 µM.

Regarding `CSc1ncnc2c([C@@H]3O[C@H](CO)C[C@H]3O)n[nH]c12`, in data set [1], the CC50 at 48 h is over 1000 µM.

Regarding `CN[C@H]1[C@H](O)[C@@H](CO)O[C@H]1c1n[nH]c2c(SC)ncnc12`, the CC50 at 48 h in data set [1] turned out to be 49 µM.

Regarding `NC(=O)CSc1ncnc2c([C@@H]3O[C@H](CO)[C@@H](O)[C@H]3O)n[nH]c12`, the cytotoxic concentration (CC50) at 48 h in data set [1] amounted to 307 µM.

For `CSc1nc(SC)c2[nH]nc([C@@H]3O[C@H](CO)[C@@H](O)[C@H]3O)c2n1`, in the data set with Influenza A virus, the IC50 is over 1 µM. Further, the CC50 at 48 h in data set [1] was over 1000 µM.

For `CSc1ncnc2c([C@@H]3O[C@H](CO)[C@@H](O)[C@H]3O)n(C)nc12`, the CC50 at 48 h in data set [1] was over 1000 µM.

On to `CSc1ncnc2c([C@@H]3O[C@H](CO)[C@H](O)[C@H]3O)n[nH]c12`, for which the CC50 at 48 h in data set [1] was over 1000 µM.

For `OC[C@H]1O[C@@H](c2n[nH]c3c(SC(F)(F)F)ncnc23)[C@H](O)[C@@H]1O`, the IC50 with Influenza A virus stood at 0.397 µM. Also, the CC50 at 48 h in data set [1] worked out at 3.6 µM.

As for `OC[C@H]1O[C@@H](c2n[nH]c3c(N4CCCCC4)ncnc23)[C@H](O)[C@@H]1O`, the CC50 at 48 h in data set [1] stood at 289 µM.

`CSc1nc(Cl)nc2c([C@@H]3O[C@H](CO)[C@@H](O)[C@H]3O)n[nH]c12`: the IC50 with Influenza A virus was over 1 µM. In data set [1], the CC50 at 48 h was over 1000 µM.

For `OC[C@H]1O[C@@H](c2n[nH]c3c(N4CCCC4)ncnc23)[C@H](O)[C@@H]1O`, the CC50 at 48 h in data set [1] amounted to 211 µM.

Regarding `O=c1[nH]cnc2c([C@@H]3O[C@H](CO)[C@@H](O)[C@H]3O)n[nH]c12` [FORMYCIN B], in the data set on Influenza A virus, the IC50 was 3.63 µM. Also, the CC50 at 48 h in data set [1] stood at 68 µM.

As to `CSc1ncnc2c([C@@H]3O[C@H](CO)[C@@H](O)[C@H]3O)nn(C)c12`, the IC50 with Influenza A virus stood at 0.344 µM. Besides, the CC50 at 48 h in data set [1] was determined as 205 µM.

Consider `CNc1ncnc2c([C@@H]3O[C@H](CO)[C@@H](O)[C@H]3O)n[nH]c12`, for which the IC50 with Influenza A virus was found to be 0.015 µM. Moreover, the CC50 at 48 h in data set [1] came to 1.5 µM.

With `OC[C@H]1O[C@@H](c2n[nH]c3c(S)ncnc23)[C@H](O)[C@@H]1O`, the IC50 in the data set with Influenza A virus amounted to 0.571 µM. The CC50 at 48 h in data set [1] worked out at 403 µM.

As to `CSc1ncnc2c([C@H]3C[C@H](O)[C@@H](CO)O3)n[nH]c12`, the IC50 with Influenza A virus was over 3 µM. Moreover, in data set [1], the CC50 at 48 h is over 1000 µM.

Regarding `CSc1ncnc2c([C@@H]3O[C@H](CO)[C@@H](O)[C@@]3(C)O)n[nH]c12`, the IC50 in the data set on Influenza A virus is 2.59 µM. In data set [1], the CC50 at 48 h was over 1000 µM.

On to `CCCCNc1ncnc2c([C@@H]3O[C@H](CO)[C@@H](O)[C@H]3O)n[nH]c12`, for which the IC50 in the data set with Influenza A virus is 0.68 µM. The CC50 at 48 h in data set [1] is over 1000 µM.
